The target in the assay is T1, CSNK2A2 (CK2 alpha 2) (Homo sapiens, UniProt P19784).
T1 construct: purchased Thermo Fisher Scientific (Life Technologies) SelectScreen
Put plainly: SelectScreen Z'LYTE. The class given is biochemical. In short, it runs like this:
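NU5455 was profiled across the SelectScreen Broad panel of kinase activity and binding assays. Z'LYTE reactions such as CSF1R ran at apparent Km ATP, while the Adapta CAMK1 assay used ATP listed as 10. Values are given as percent.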

Inhibition data for 1 compound are collected here from PMC6934184, “Selective DNA-PKcs inhibition extends the therapeutic index of localized radiotherapy and chemotherapy” (The Journal of Clinical Investigation, 2019).

T1 sequence (P19784 whole entry): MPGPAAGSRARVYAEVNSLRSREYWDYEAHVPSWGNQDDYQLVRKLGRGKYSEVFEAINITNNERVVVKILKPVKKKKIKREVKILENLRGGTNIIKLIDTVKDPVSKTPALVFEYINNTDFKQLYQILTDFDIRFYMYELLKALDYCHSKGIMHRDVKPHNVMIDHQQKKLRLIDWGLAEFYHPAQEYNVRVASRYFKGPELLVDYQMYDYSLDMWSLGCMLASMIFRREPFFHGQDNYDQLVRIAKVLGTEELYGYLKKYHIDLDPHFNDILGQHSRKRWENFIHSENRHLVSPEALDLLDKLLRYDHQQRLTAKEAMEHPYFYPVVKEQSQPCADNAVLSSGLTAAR

Take `CN(C(=O)CN1CCOCC1)c1ccc2sc3c(-c4cccc5c(=O)cc(N6CC7CCC(C6)O7)oc45)cccc3c2c1` [NU5455]: the inhibition at 1 µM worked out at 8.7%.

In general, inhibition refers to the share of the control response that was lost under treatment.
